Here are results for 2 compounds from article PMC2911475 (Journal of molecular biology, 2009).

In this experiment the target is FcsSBP (Fucose Solute Binding Protein). Nature of the experiment: isothermal titration calorimetry. Set-up: species or system Streptococcus pneumoniae. The following applies: 50 mM Tris HCl pH 7.5, 25 °C, one-site model. For orientation: In ITC the heat of successive injections is recorded.

In the case of `CC(=O)N[C@H]1[C@@H](O[C@H]2[C@@H](O)[C@@H](CO)OC(O)[C@@H]2O[C@@H]2O[C@@H](C)[C@@H](O)[C@@H](O)[C@@H]2O)O[C@H](CO)[C@H](O)[C@@H]1O` (some centres unmarked) [A-trisaccharide, GalNAcα1–3(Fucα1–2)Gal], the Ka (crystal structure of SeMet protein) is listed as 1.01 (±0.16) × 10^6.
Take `C[C@@H]1O[C@@H](O[C@H]2C(O)O[C@H](CO)[C@H](O)[C@@H]2O[C@H]2O[C@H](CO)[C@H](O)[C@H](O)[C@H]2O)[C@@H](O)[C@H](O)[C@@H]1O` (some centres unmarked) [B-trisaccharide, Galα1–3(Fucα1–2)Gal]: the Ka is recorded as 1.15 (±0.27) × 10^6.
